Reference: patent publication US5455274A, “Hydroxyamidine derivatives” (Ciba-Geigy Corporation, priority 1992, dated 1995)
pIC50: −log10 of the molar value.

Columns and labels:
Human PMNs = experiment: LTB4-induced PMN aggregation; type: cell-based; conditions: in vitro, 20 nM LTB4, read-out: inhibits LTB4 -induced PMN aggregation, IC50
Experimental: Neutrophils (PMN's) are prepared from uncoagulated human venous blood. Blood is dispersed into 50 ml polypropylene tubes containing 15 ml of HESPAN (Dupont, Wilmington, Del.), and mixed. Tubes are allowed to stand at room temperature for 40 minutes until most of the red blood cells sediment. The supernatants are removed and centrifuged for 5-10 min at 400×g. The remaining pellets are diluted in 70 ml of Phosphate Buffered Saline without calcium and magnesium (PBS without metals; GIBCO, Grand Island, N.Y.) and 35 ml of this suspension are placed in each of two polypropylene tubes containing 15 ml of Ficoll-Paque (Sigma, St. Louis, Mo.). Gradients are then centrifuged for 15 minutes at 420×g. […]
Human PMNs are prepared as previously described. Neutrophil aggregation is assessed by monitoring the intensity of light passing through a suspension of cells (Craddock et al., J. Clin. Invest. 60: 260-264, 1977) using a Payton dual channel aggregometer (model 300BD). […] 5 μl of 2 μM LTB4 in PBS (20 nM final concentration) are added and the aggregation response monitored for 3-5 min, the time required for optimal response, Compounds are solubilized in 0.01M DMSO and then diluted in PBS to 0.001 M. 5 μl of compound solution is added along with cytochalasin B and cells as described above. Following the preincubation period 5 μl of 2 μM LTB4 are added and aggregation is measured. […]

[1] = system: LTB4 -induced neutropenia; experiment: LTB4-induced neutropenia in the rat; type: in vivo; conditions: dose of about 0.5 mg./Kg p.o., determined at four hours after administration
Experimental: LTB4 -Induced Neutropenia in the Rat
Male Sprague Dawley rats (crl: CDBR; Charles River, Wilmington, Mass.) (250-300 grams) are fasted overnight prior to the experiment. At least six animals are used per treatment group. Rats are given vehicle or compound either intravenously or orally and at intervals after dosing, neutrophil counts are determined from blood samples obtained just prior to and 20 seconds after intravenous infusion of 200 ng LTB4. In studies where compound is administered orally, drug is given by gavage. When drug is administered intravenously, rats are first anesthetized with 50 mg/kg i.p. of Sodium Pentabarbital. The jugular vein is exposed and cleaned of the surrounding tissue. At 3, 4 or 18 hours following administration of compound or vehicle by either route, blood samples are taken (0.3 ml of blood in 1.5 ml polypropylene microcentrifuge tube containing 0.01 mi 7.5% EDTA). Blood neutrophil counts are determined using a Technicon H-1 hematology instrument. Antagonism of the LTB4 -induced neutropenia response for the compounds tested is calculated.

pIC50 (Human PMNs): ~8.00
SMILES: CC(C)N(C(=O)c1ccc(OCCCCCOc2ccc(C(N)=NO)cc2)cc1O)C(C)C [Example 1, 4-[5-[4-[amino(hydroxyimino)methyl]phenoxy]pentyloxy]-2-hydroxy-N,N-bis(1-methylethyl)benzamide]
inhibition of LTB4 -induced neutropenia in the rat [1]: causes inhibition
